Entries after “also recorded” stand apart in the source; their conditions may differ. Counter-ions that a name gives are not always drawn.
What was measured:
[1] = system: gentamicin entry into hair cells; assay: Gentamicin-conjugated Texas Red (GTTR) uptake imaging; type: in vivo, zebrafish (Danio rerio); details: protective drug at optimal dose; 50 uM GTTR for 3 min
Description: Gentamicin-conjugated Texas Red Imaging. […] Fish were anesthetized with MS222 and transferred to double wholemount slides for imaging using fluorescence microscopy on an automated stage (Marianas imaging system, Intelligent Imaging Innovations) with a Zeiss Axiovert 200M inverted microscope (Carl Zeiss). Each image contained a z-stack encompassing 2-3 neuromasts as determined by viewing under brightfield illumination. Each fish was imaged once and 5 fish were imaged for each treatment group. Control fish were treated with EM only (mock-treated) or with 3 min of 50 uM GTTR only.
GTTR Image analysis. […] Then 2-3 neuromasts per image were traced and converted to a mask field “Mask 1”. […] Then Boolean addition was used to create the neuromast mask (NM) by taking “Mask1” AND thresholded segment and the background mask (BG) by taking “Mask2” AND thresholded segment. Mean intensity, standard deviation of intensity, sum intensity and volume in voxels were calculated for NM and BG. To create an index of intensity, NM/BG was calculated for each fish and values for mock-treated fish were subtracted and multiplied by 100 to obtain “% intensity above background”.

[2] = system: hair cells of the zebrafish lateral line; assay: Dose response testing: protection of zebrafish lateral line hair cells against toxin-induced hair cell death (DASPEI neuromast scoring); type: in vivo, zebrafish (Danio rerio)
Procedure: Animal care. Wildtype Larval zebrafish (Danio rerio) were produced via group matings of adult fish. […] Beginning at 4 days post-fertilization (dpf), fish were fed live paramecia or rotifers daily. Experiments were performed using 5 or 6 dpf larvae. The University of Washington Animal Care and Use Committee approved of the animal procedures described here.
Dose response testing. Drug screen “hits” were tested to determine minimum concentrations of drug and maximum concentrations of toxin that confer protection against hair cell death. All “hits” were tested against all four hair cell toxins regardless of whether a given “hit” was positive with a specific toxin in the screen. 5 or 6 dpf larvae were transferred to 6-well Corning Netwell baskets and placed in 6-well plates (Fisher Scientific) in EM with approximately 10 fish per basket. This allowed for easy transfer between treatment media. Drug and toxins were made up in 7 ml of EM. Larvae were pretreated for one hour in a dose of protective drug followed by cotreatment in protective drug and hair cell toxin. […] Then larvae were rinsed 4× and anesthetized with MS222. Larvae were transferred to glass depression slides and viewed on a Leica epifluorescent microscope with a DASPEI filter (Chroma Technologies, Brattleboro Vt.). […] To find minimum protective concentrations, doses of protective drug tested were 0, 0.5, 1, 5, 10, 50, 100 uM and toxin dose was held at the concentrations used for screening (see above). For those doses of putative protectants that killed the larvae, further doses were tested to determine if intermediate doses were optimal. For dose response curves finding maximum toxin dose at which protection occurs, dose of protective drug was held at previously determined optimal dose and toxin dose was varied as follows: […]

bacteria = assay: Antibiotic efficacy of the ototoxic aminoglycoside in presence of protective drug; type: cell-based
[3] = system: hair cells of the zebrafish lateral line; assay: Screen of BIOMOL FDA Approved Drug Library for protection against toxin-induced hair cell death (YO-PRO1); type: in vivo, zebrafish (Danio rerio); details: 4 μg/ml library compound, 1 hr preincubation
Procedure: Drug Library. BIOMOL's FDA Approved Drug Library (Enzo Life Sciences Inc., Plymouth Meeting, Pa., USA (formerly BIOMOL International, L.P.)) was used to screen zebrafish larvae for compounds that protect against toxin-induced hair cell death. The library consists of 640 drugs dissolved at 2 mg/ml in dimethyl sulfoxide (DMSO). The drugs were aliquoted into eight 96-well plates with 80 drugs per plate and stored at 4 C during initial screening and re-testing.
Screening. Larvae were prelabeled with 2 μM YO-PRO1 (Invitrogen, Carlsbad, Calif. USA; Y3603) in embryo medium for 30 min and then rinsed three times. […]
Concentrations and incubation times were chosen based on previously determined dose-response in order to achieve maximal hair cell death at the lowest concentration of toxin (Ou et al. 2007; Owens et al. 2009). […] After incubation in library drug and hair cell toxin, larvae were anesthetized with 0.001% MS222 (3-aminobenzoic acid ethyl ester methanesulfonate; Sigma) and immediately viewed using fluorescence microscopy on an automated stage (Marianas imaging system, Intelligent Imaging Innovations) using a Zeiss Axiovert 200M inverted microscope (Carl Zeiss). Fish were scored on a scale from 0 to 2 with 2 corresponding to mostly healthy hair cells and a 0 corresponding to mostly dead hair cells. […]

[4] = system: hair cells of the zebrafish lateral line; assay: Pretreatment experiments (1 hr, 15 min or no pretreatment before 200 uM neomycin); type: in vivo, zebrafish (Danio rerio); details: for Pre-treatment time prior to aminoglycoside exposure giving greater effectiveness: zebrafish, in vivo
Description: Pretreatment experiments. […] Controls were mock treated or treated with neomycin only.

[5] = system: hearing (threshold shift); type: in vivo, rat; details: rats; protectant 25 mg/kg intraperitoneally; kanamycin 25 mg/kg per day i.p. for two weeks
Procedure: Rats were injected with 25 mg/kg per day (intraperitoneal) kanamycin for two weeks, a treatment that induces a hearing loss similar to that observed in humans following aminoglycoside treatment. At higher frequencies, the hearing loss observed in rats treated with kanamycin (without protectant) is a threshold shift of 50 dB and at mid-frequencies a hearing loss observed is 30-40 dB threshold shift.
The PROTO1 was administered intraperitoneally at a dose of 25 mg/kg. The PROTO1 was given as a 3.33 mg/mL solution in 1:1:2:16 (DMSO:Cremophor EL:EtOH:PBS).

sensory hair cells = assay: Zebrafish model of protection of sensory hair cells against ototoxins (PROTO1); details: in vivo
[6] = system: cultured lung cancer cells; assay: Inhibition of growth of cultured lung cancer cells in presence of protective drug (in vitro); type: cell-based; details: in vitro testing
zebrafish hair cells = assay: Quinoline ring derivatives: pretreatment protection against neomycin-induced hair cell death (FIG. 1); type: in vivo; details: 5 dpf zebrafish; 0, 10, 50, 100 or 200 μM pretreatment; 200 μM neomycin
Procedure: (§1) FIG. 1 is a bar graph depicting results of cinchonine pretreatment, which protects against neomycin-induced hair cell death. Five day post-fertilization zebrafish were pretreated with 0, 10, 50, 100 or 200 μM cinchonine prior to treatment with 200 μM neomycin. […] The negative control represents fish not exposed to neomycin. Data bars are mean hair cell survival from 8 to 10 fish. Error bars represent standard deviation from the mean.
as §1, with “Five” for “FIG. 1 is a bar graph depicting results of cinchonine pretreatment, which protects against neomycin-induced hair cell death. Five”

[7] = system: hearing and vestibular function; details: human, in vivo; cited from earlier work

SMILES	Uptake (whether gentamicin is able to enter cells in the presence of protective drug) [1]	Protection of sensory hair cells against gentamicin ([2]; zebrafish, in vivo)	Effect on antibiotic efficacy of the ototoxic aminoglycoside (bacteria)	further results
NC(=NCc1ccccc1)NC(=O)c1nc(Cl)c(N)nc1N [Benzamil]	attenuate			
CCN(CC)CCCC(C)Nc1ccnc2cc(Cl)ccc12 (stereo not drawn) [Chloroquine diphosphate]		protect against gentamicin	without diminishing the antibiotic efficacy	
CNCCC(Oc1ccc(C(F)(F)F)cc1)c1ccccc1 (stereo not drawn) [Fluoxetine HCl]	no block		without diminishing the antibiotic efficacy	
O=C1NCN(c2ccccc2)C12CCN(CCCC(c1ccc(F)cc1)c1ccc(F)cc1)CC2 [Fluspirilene]	no block		without diminishing the antibiotic efficacy	
CN(C)C(=O)C(CCN1CCC(O)(c2ccc(Cl)cc2)CC1)(c1ccccc1)c1ccccc1 [Loperamide]	no block	protect against gentamicin	without diminishing the antibiotic efficacy	Protection of sensory hair cells against kanamycin ([2]; zebrafish, in vivo): protect against kanamycin; Protection in library screen against aminoglycosides (neomycin, gentamicin, kanamycin) and/or cisplatin [3]: protects against all four toxins
CSc1ccc2c(c1)C(N1CCN(C)CC1)Cc1ccccc1S2.O=C(O)/C=C\C(=O)O (stereo not drawn) [Methiothepin maleate]	no block	protect against gentamicin	without diminishing the antibiotic efficacy	Drug dose (optimal dose that confers protection against toxins) ([2]; 5 or 6 dpf larvae, toxin dose held at screening concentration): 10 µM; Pre-treat (necessary pretreatment time before toxin exposure for effective protection) ([4]; followed by 1 hr cotreatment with 200 uM neomycin): 60 min; Pre-treatment time prior to aminoglycoside exposure giving greater effectiveness [4]: 60 min
CCN1CCc2c(sc(NC(=O)Nc3ccc(Cl)cc3)c2C(N)=O)C1 [PROTO1, 2-({[(4-chlorophenyl)amino]carbonyl}amino)-6-ethyl-4,5,6,7-tetrahydrothieno[2,3-c]pyridine-3-carboxamide]				Protection against kanamycin-induced hearing loss [5]: significant protection against hearing loss; Protection of sensory hair cells against ototoxins in the Zebrafish model (sensory hair cells): shown to protect
Fc1ccc([C@@H]2CCNC[C@H]2COc2ccc3c(c2)OCO3)cc1 [Paroxetine HCl]	attenuate	protect against gentamicin	without diminishing the antibiotic efficacy	Protection of sensory hair cells against cisplatin ([2]; zebrafish, in vivo): protective against cisplatin; Effect on inhibition of growth of cultured lung cancer cells [6]: alters inhibition of growth of some cultured lung cancer cells at some doses and not at others
CC(COc1ccccc1)N(CCCl)Cc1ccccc1 (stereo not drawn) [Phenoxybenzamine HCl]	attenuate	protect against gentamicin	without diminishing the antibiotic efficacy	Pre-treatment time prior to aminoglycoside exposure giving greater effectiveness [4]: 15 min
CC(CCc1ccc(O)cc1)NCC(O)c1ccc(O)cc1 (stereo not drawn) [Ractopamine]	block	protect against gentamicin; also recorded: protected	without diminishing the antibiotic efficacy	Protection of sensory hair cells against kanamycin ([2]; zebrafish, in vivo): protect against kanamycin; also recorded: protected; Protection of sensory hair cells from neomycin ([2]; zebrafish, in vivo): protected
O=C(c1ccc(OCCN2CCCCC2)cc1)c1c(-c2ccc(O)cc2)sc2cc(O)ccc12 [Raloxifene HCl]	block	protect against gentamicin	without diminishing the antibiotic efficacy	
CC/C(=C(\c1ccccc1)c1ccc(OCCN(C)C)cc1)c1ccccc1 [Tamoxifen citrate]	no block		without diminishing the antibiotic efficacy	
CN(C)CCOc1ccc(/C(=C(/CCCl)c2ccccc2)c2ccccc2)cc1 [Toremifene citrate]			without diminishing the antibiotic efficacy	
C=C[C@H]1C[N@@]2CC[C@H]1C[C@@H]2[C@@H](O)c1ccnc2ccccc12 [cinchonine]				Hair cell survival after neomycin with cinchonine pretreatment (zebrafish hair cells): increasing hair cell survival
N.N.[Cl][Pt][Cl] [cisplatin]				High frequency hearing loss (>8 kHZ) incidence [7]: ≤ 90%

Reference: US20110135756A1, “COMPOSITIONS AND METHODS FOR PROTECTING SENSORY HAIR CELLS” (University of Washington, priority 2009, published 2011)
